1 substance from patent US11007250B2, “Methods and kits for treating pain” (Duke University, priority 2017, dated 2021) can be followed below.

In one experiment the test system is naive mice. The experiment is described as follows: Basal pain in naive mice (von Frey test, spontaneous pain). Type of experiment: in vivo, mouse. As to conditions: RMP1-14 5 μg, Nivolumab 10 μg.
The subject of experiment [1] is DRG neurons and sciatic nerve fibers. The experiment is described as follows: Nivolumab binding in mouse DRG and sciatic nerve sections. The protocol:
FIG. 10 (Supp. FIG. 2). […] Human IgG included as a control. *P<0.05, vs. human IgG/PD-L1, repeated measures Two-Way ANOVA, n=4 mice/group. Arrows indicate drug injections. Human IgG or monoclonal antibody injected 30 min prior to injection of PD-L1. BL, baseline. […] Arrows indicate nerve fibers. Data are mean s.e.m.
Immunohistochemistry in mouse and human tissues and quantification. After appropriate survival times, mice were deeply anesthetized with isoflurane and perfused through the ascending aorta with PBS, followed by 4% paraformaldehyde. After the perfusion, the L4-L5 spinal cord segments, L4-L5 DRGs, sciatic nerves, and melanoma tissues were removed and postfixed in the same fixative overnight. Fresh human DRGs (L4-L5) of 4 non-diseased donors from NDRI (National Disease Research Interchange) (Xu, Z Z, et al. 2015) and the attached spinal nerves were immediately fixed upon delivery in fresh 4% paraformaldehyde overnight. Spinal cord, DRG, and nerve tissue sections (10 or 14 μm) and free-floating spinal cord and skin sections (30 μm) were cut in a cryostat. […] The stained sections were examined with a Nikon fluorescence microscope, and images were captured with a CCD Spot camera. […]

Experiment [2] deals with lamina 110 neurons in spinal cord slices. The experiment is described as follows: Patch clamp recordings of sEPSCs in spinal cord slices. It counts as cell-based, mouse. As to conditions: Nivolumab 300 ng/ml.
The test system of experiment [3] is afferent fibers in sciatic nerve of melanoma-bearing mice. The experiment is described as follows: Spontaneous discharge recordings in mouse sciatic nerve in vivo. Conditions: i.v. Nivolumab 10 mg/kg, MCI-4w, 3 h after injection. The text has this:
Spontaneous discharge recordings in mouse sciatic nerve in vivo. Adult male mice (25-32 g) were anaesthetized with urethane (1.5 g/kg, i.p.) and monitored for loss of hind paw pinch reflex with additional injections of urethane (0.2 g/kg). The animals were artificially ventilated with oxygen on a respirator. The left thigh was shaved and an incision made parallel to the femur. The muscle was parted by blunt forceps dissection to expose the sciatic nerve proximal to the trifurcation. A cuff electrode (Microprobes) was placed loosely around the full circumference of the sciatic nerve. Skin flaps were raised to enclose a pool of mineral oil that covered the exposed regions of nerve. The spontaneous discharges in the sciatic nerve were recorded with a microelectrode AC amplifier (1800, A-M systems), filtered (low cut-off 100 Hz and hi cut-off 20 kHz) and digitized at 20 kHz (Digidata 1440A, Molecular Devices). Data were stored with a personal computer using pCLAMP 10 software and analyzed with Offline Sorter software (Plexon, Dallas, Tex.) and Origin pro 8.0 (Origin Lab). The spikes of sciatic nerve were characterized as previously reported (Xu, Z Z, et al. 2015).

A further experiment concerns mice. The experiment is described as follows: Tail-flick and hot-plate tests of morphine antinociception. Type of experiment: in vivo, mouse. The protocol:
Tail-flick test. All animals were habituated to testing environment for at least 2 days before baseline testing. Mice were gently held by a hand with a terry glove and with tails exposed. The distal 3 cm of the tail was immersed into the 50° C. hot water. The tail-flick latency was the time required for a mouse to flick or remove its tail out of the water. A maximum cut-off value of 15 seconds was set to avoid thermal injury. Tail-flick latency was determined both before and after drug injection. Data are expressed as the maximum possible effect (MPE) calculated as MPE (%)=100×[(postdrug response baseline response)/(cutoff response−baseline response)]. The MPE (%) data from each animal were converted to area under the curve (AUC).
Hot-plate test. All animals were habituated to testing environment for at least 2 days before baseline testing. […] A maximum cut-off value of 40 seconds was set to avoid tissue injury. Data are expressed as the maximum possible effect (MPE) calculated as MPE (%)=100×[(postdrug response−baseline response)/(cutoff response−baseline response)]. The MPE (%) data from each animal were converted to area under the curve (AUC).
Background: Thermal pain tests record how soon the animal reacts.

Where [4] appears, read: PD-L1 30 ng/ml, sPD-1 30 ng/ml perfusion, 3 h.

Regarding “Nivolumab: FDA-approved fully humanized IgG4 monoclonal anti-PD-1 antibody, Bristol-Myers Squibb”, in the experiment on naive mice (antibody i.pl. 30 min prior to PD-L1 (5 μg, i.pl.)), the “effect on PD-L1's analgesic effects” value is “blocked”. Further, in the experiment with naive mice (i.pl., sPD-1 5 μg), the “duration of mechanical allodynia in naive mice” value is listed as 5 h and the “mechanical allodynia in naive mice” value is on record as “marked mechanical allodynia”. In addition, the “binding in Pd1 knockout mice” value in experiment [1] (Pd1−/− mice) is “absent”. Also, the “binding in wild-type (WT) mouse tissue” value in experiment [1] (WT mice) was “binding on DRG neurons and sciatic nerve fibers”. Also, in experiment [2] (3 h incubation), the “effect on PD-L1's inhibition of sEPSC frequency” value is listed as “blocked”. In experiment [2] (setting [4]), the “amplitude of spontaneous EPSCs (sEPSCs)” value is “not amplitude” and the “frequency of spontaneous EPSCs (sEPSCs)” value was “increased sEPSC frequency”. The “spontaneous discharges in nerve fibers” value in experiment [3] is reported as “significantly increased spontaneous discharges”. Further, in the experiment on mice (Nivolumab 10 mg/kg i.v. 30 min before morphine 10 mg/kg s.c.), the “analgesic effect of morphine after Nivolumab” value is “reduced analgesic effect”. The “pain sensitivity, given with saline” value in the experiment on mice (Nivolumab 10 mg/kg i.v. 30 min before s.c. saline) is on record as “greater sensitivity to pain”.
